# Experiments:
# iPSC-BMECs = experiment: Biphalin uptake studies in iPSC-BMECs; type: in vitro ADME, human
# Procedure: (§1) We measured the level of biphalin in cell lysate (uptake studies) and transport buffer (transport studies) while using our developed, highly sensitive LC-MS/MS method. Briefly, biphalin was extracted from the samples by the addition of acetonitrile (1:2) containing 10 ng/mL internal standard, [D-Ala^2] Leucine Enkephalin (Sigma-Aldrich, St. Louis, MO, USA). After 1-min. vortexing, the mixture is centrifuged at 10,000 rpm for 10 min. After that the supernatant is mixed with an equivalent volume of LCMS water and then loaded into the insert vials ready for the analysis. The UHPLC-MS/MS system equipped with AB SCIEX QTRAP® 5500 mass spectrometer (Foster City, CA, USA) attached to a Nexera ultra high performance liquid chromatography (UHPLC) system from Shimadzu Corporation (Columbia, MD, USA) was used. Data acquisition and quantification were performed by Analyst software 1.7.0.
# (§2) Chromatographic separation was then performed with a Kinetex C18 column (50 × 2.1mm, 1.8 μm, Phenomenex, Torrance, CA, USA) while using mobile phases, 0.1% formic acid in water and 0.1% formic acid in acetonitrile. The gradients of acetonitrile (10% at time zero, 31% at 2.5 min., 90% at 2.6 min. up to 3.6, followed by 10% at 3.7 min. up to 4.5 min.) were used to elute biphalin at a flow rate of 0.4 mL/min. Column temperature was maintained at 45 °C. The retention time of biphalin was ∼1.8 min. while the retention time for the internal standard (IS) was ∼2.2 min. Multiple reaction monitoring was conducted in […], and the transitions for biphalin and internal standard were 455.2 → 136.2 m/z and 570.3 → 120.3 m/z, respectively. The collision energy for biphalin and IS was 40 and 45 volts, respectively.
# Differentiated BMECs (iPSC-BMECs) are seeded in 12-well plates, incubated with either biphalin (10 µg/mL) (control) or pre-incubated with OATP1 substrate, estrone-3-sulfate (E3S) (10 µM) for 10 min., followed by co-incubation of E3S and 10 µg/mL biphalin in the 37 °C incubator for 20 min. The incubation time, 20 min. was selected to get detectable amount of biphalin in the cell extract. Next, the cells are washed two times with ice-cold phosphate buffered saline (PBS, pH 7.4). The cells were solubilized with 100 µL radioimmunoprecipitation assay (RIPA) Buffer (Thermo Fisher, Waltham, MA, USA) with protease and phosphatase inhibitor cocktail (Thermo Fisher, Waltham, MA, USA), and the amount of biphalin uptake was determined by using the above LCMS method. Protein content was calculated with a detergent-compatible bicinchoninic acid (BCA) assay (Pierce Chemical, Rockford, IL, USA). Biphalin uptake was normalized while using protein content and then presented as biphalin (ng) per µg of protein.
# In vitro stroke conditions were simulated by exposing the cells to oxygen-glucose deprivation (OGD) conditions. Briefly, iPSC-BMECs were rinsed twice with Dulbecco’s Modified Eagle medium Solution (DMEM). The cells were incubated with DMEM media (without glucose) plus 1% of PDS [33]. Hypoxia (1% oxygen) was induced by placing the cells in a hypoxic polymer glove box (Coy Laboratories, Grayslake, MI, USA), which was infused with 95% N2 and 5% CO2 at 37 °C. Cells were exposed to OGD condition for 1 h, 2 h, and 6 h, followed by reperfusion with OGD media with glucose and sodium pyruvate. For reperfusion studies, the cells were incubated in the CO2 incubator for pre-determined timepoints, 30 min., 1 h, 2 h, and 6 h.
# [1] = cited from earlier work
# From the text: Our lab has communicated several studies that reported the neuroprotective potential of biphalin, an ultra-potent, non-selective, opioid agonist, in models of both permanent and transient ischemic stroke.
# iPSC-BMECs monolayer = experiment: Biphalin transcellular transport across iPSC-BMECs monolayer (transwell in vitro BBB model); type: in vitro ADME, human
# Procedure: as §1, §2
# (§3) Transport studies were performed to determine the role of OATP1 on the blood-to-brain transport of biphalin. Confluent iPSC-BMECs, (one million cells/insert) were seeded to the apical side of a 12-well transwell insert (area 1.12 cm^2, polyester), which is pre-coated with 400 µg/mL collagen and 100 µg/mL fibronectin [35]. 10 µg/mL biphalin and an equivalent concentration of FITC-dextran (4kD) were added to the apical compartment. For studies using an inhibitor and OATP1 substrate, E3S was pre-incubated for 30 min., followed by incubation with biphalin and E3S [11]. E3S was added to both the luminal and abluminal sides to inhibit the transporters on both sides. The results were expressed as a net permeability coefficient (PC) after subtracting the PC of FITC-dextran from the PC of biphalin.
# (§4) In vitro stroke conditions were simulated by exposing the cells to oxygen-glucose deprivation (OGD) conditions. […] For reperfusion studies, the cells were incubated in the CO2 incubator for pre-determined timepoints, 30 min., 1 h, 2 h, and 6 h.
# OATP1 = experiment: as above; type: in vitro ADME, human; conditions: human; normoxic; E3S pre-incubated 30 min, both luminal and abluminal sides, then biphalin 10 µg/mL plus E3S; A-B; corrected for FITC-dextran 4 kD; LC-MS/MS; mean ± SD, n = 4; read-out: net permeability coefficient (PC) of biphalin, apical to basolateral, with E3S (converted)
# Procedure: as §1, §2, §3, §4
smiles,measurement,setting,value
C[C@@H](NC(=O)[C@@H](N)Cc1ccc(O)cc1)C(=O)NCC(=O)N[C@@H](Cc1ccccc1)C(=O)NNC(=O)[C@H](Cc1ccccc1)NC(=O)CNC(=O)[C@@H](C)NC(=O)[C@@H](N)Cc1ccc(O)cc1 [biphalin],biphalin uptake,"iPSC-BMECs; 2 h OGD + 6 h reperfusion, LC-MS/MS, mean ± SD, n = 4",2.5 ± 0.2 ng/µg
same,biphalin uptake,"iPSC-BMECs; 6 h OGD + 30 min reperfusion, LC-MS/MS, mean ± SD, n = 4",2 ± 0.25 ng/µg
same,biphalin uptake,iPSC-BMECs; 6 h OGD + 6 h reperfusion,decreased to the basal normoxic level
same,biphalin uptake,"iPSC-BMECs; after 1 h OGD, biphalin 10 µg/mL, 20 min, LC-MS/MS, mean ± SD, n = 4",1.31 ± 0.2 ng/µg
same,increase of biphalin uptake compared to normoxic conditions,"iPSC-BMECs; after 2 h OGD exposure (1% oxygen, no glucose), n = 4",2.8 fold
same,biphalin uptake,"iPSC-BMECs; after 2 h OGD, biphalin 10 µg/mL, 20 min, LC-MS/MS, mean ± SD, n = 4",1.89 ± 0.015 ng/µg
same,increase of biphalin uptake compared to normoxic conditions,"iPSC-BMECs; after 6 h OGD exposure (1% oxygen, no glucose), n = 4",2.4 fold
same,biphalin uptake,"iPSC-BMECs; after 6 h OGD, biphalin 10 µg/mL, 20 min, LC-MS/MS, mean ± SD, n = 4",1.64 ± 0.15 ng/µg
same,average reduction of biphalin uptake by E3S pre-incubation,"iPSC-BMECs; average over selected OGD and OGD-reperfusion timepoints (2 h OGD, 6 h OGD, 2 h OGD + 6 h R, 6 h OGD + 30 min R), n = 3",26.59 ± 8.01%
same,reduction of biphalin uptake by E3S,"iPSC-BMECs; normal (normoxic) conditions, E3S 10 µM",approximately 23%
same,biphalin uptake,"iPSC-BMECs; normoxic, without E3S, biphalin 10 µg/mL, 20 min, 37 °C, cell lysate (RIPA), LC-MS/MS, normalized to protein (BCA), mean ± SD, n = 4",0.49 ± 0.05 ng of biphalin per 1 ug of protein
same,biphalin uptake with E3S,"iPSC-BMECs; normoxic, E3S (OATP1 substrate) 10 µM pre-incubated 10 min, then co-incubated with biphalin 10 µg/mL 20 min, 37 °C, LC-MS/MS, mean ± SD, n = 4",0.37 ± 0.05 ng/ug protein
same,injected dose accumulated in the brain,[1],0.05%
same,average reduction of biphalin transport in the presence of E3S,"iPSC-BMECs monolayer; A-B, average over OGD and OGD-reperfusion timepoints, E3S pre-treated 30 min, n = 3",37.96 ± 12.51%
same,transport of biphalin from basolateral to apical side (B to A),"iPSC-BMECs monolayer; B-A, to determine the role of P-gp or other efflux mechanisms, data not shown",negligible
same,reduction of biphalin transport by E3S,"iPSC-BMECs monolayer; normal (normoxic) conditions, A-B, E3S pre-incubated 30 min",~40%
same,Papp A→B at 10 µg/mL,OATP1,5.67 ×10⁻⁶ cm/s

# Reference: PMC6781285, “Brain Delivery of a Potent Opioid Receptor Agonist, Biphalin during Ischemic Stroke: Role of Organic Anion Transporting Polypeptide (OATP)” (Pharmaceutics, 2019)
